Values joined by “and” are separate entries in the source; they are usually repeats but may differ in a detail not shown here. Equal values may be shown once. Read-outs that look alike come from different tables or passages of the source.
Legend:
[1] = test system: bacillus atrophaeus spores; conditions: normal machine operation, cartons running
Procedure: (§1) Studies were conducted to determine the microbial eradication on mandrels 34 that were subjected to vaporized sterilant introduced at the heaters 40. […] The efficacy of the mandrel sterilization was studied for both the mandrel caps 35 and the mandrel side tubes 37 (see FIG. 3).
(§2) Each of the studies was further carried out using a testing media of bacillus atrophaeus spores for inoculating the mandrels. The mandrels were inoculated by spraying, using an aerating spray bottle having a solution with a concentration of about 7 log bacillus spores. The mandrels were then allowed to air dry. Controls were swabbed using cotton swabs to assure that the mandrels were properly inoculated. Following the machine operating period of the test, the mandrels were swabbed and the bacillus spores transferred to an agar media for incubation of the spores (at 32° C. for 48 hours) and subsequent recovery.

[2] = test system: bacillus atrophaeus spores; conditions: 3.12 percent H2O2, no machine operation, without cartons; for average count of colony forming units for the time period / log of average count for the time period: mean of samples
Procedure: as §1, §2
In this part of the analysis, the form, fill and seal machine was operated without cartons and without indexing (rotation) of the mandrels.

[3] = 16.76 percent H2O2, time 10 min
[4] = 16.76 percent H2O2, time 15 min
[5] = 16.76 percent H2O2, time 20 min
[6] = 16.76 percent H2O2, time 30 min

For `OO` [hydrogen peroxide], the “Microbial Load (CFU/mandrel)” value ([1]; 3.12 percent H2O2, time 0 min) was 848000 CFU/mandrel, the “Microbial Reduction (Log/mandrel)” value ([1]; 3.12 percent H2O2, time 0 min) was 0.00 Log/mandrel and the “Microbial Load (CFU/mandrel)” value ([1]; 3.12 percent H2O2, time 10 min) was 187000 CFU/mandrel. For the same molecule, the “Microbial Reduction (Log/mandrel)” value ([1]; 3.12 percent H2O2, time 10 min) was 0.66 Log/mandrel, the “Microbial Load (CFU/mandrel)” value ([1]; 3.12 percent H2O2, time 20 min) was 33400 CFU/mandrel and the “Microbial Reduction (Log/mandrel)” value ([1]; 3.12 percent H2O2, time 20 min) was 1.40 Log/mandrel. For the same molecule, the “Microbial Load (CFU/mandrel)” value ([1]; 3.12 percent H2O2, time 30 min) was 14100 CFU/mandrel, the “Microbial Reduction (Log/mandrel)” value ([1]; 3.12 percent H2O2, time 30 min) was 1.78 Log/mandrel and the “Microbial Load (CFU/mandrel)” value ([1]; 3.12 percent H2O2, time 40 min) was 2180 CFU/mandrel. The “Microbial Reduction (Log/mandrel)” value ([1]; 3.12 percent H2O2, time 40 min) was 2.59 Log/mandrel, the “Microbial Load (CFU/mandrel)” value ([1]; 5.77 percent H2O2, time 0 min) was 566000 CFU/mandrel and the “Microbial Reduction (Log/mandrel)” value ([1]; 5.77 percent H2O2, time 0 min) was 0.00 Log/mandrel. The “Microbial Load (CFU/mandrel)” value ([1]; 5.77 percent H2O2, time 10 min) was 107000 CFU/mandrel, the “Microbial Reduction (Log/mandrel)” value ([1]; 5.77 percent H2O2, time 10 min) was 0.72 Log/mandrel and the “Microbial Load (CFU/mandrel)” value ([1]; 5.77 percent H2O2, time 20 min) was 7300 CFU/mandrel. For the same molecule, the “Microbial Reduction (Log/mandrel)” value ([1]; 5.77 percent H2O2, time 20 min) was 1.89 Log/mandrel, the “Microbial Load (CFU/mandrel)” value ([1]; 5.77 percent H2O2, time 30 min) was 42 CFU/mandrel and the “Microbial Reduction (Log/mandrel)” value ([1]; 5.77 percent H2O2, time 30 min) was 4.13 Log/mandrel. The “Microbial Load (CFU/mandrel)” value ([1]; 5.77 percent H2O2, time 40 min) was 4 CFU/mandrel, the “Microbial Reduction (Log/mandrel)” value ([1]; 5.77 percent H2O2, time 40 min) was 5.15 Log/mandrel and the “Microbial Load (CFU/mandrel)” value ([1]; 9.55 percent H2O2, time 0 min) was 483000 CFU/mandrel. The “Microbial Reduction (Log/mandrel)” value ([1]; 9.55 percent H2O2, time 0 min) was 0.00 Log/mandrel, the “Microbial Load (CFU/mandrel)” value ([1]; 9.55 percent H2O2, time 5 min) was 71000 CFU/mandrel and the “Microbial Reduction (Log/mandrel)” value ([1]; 9.55 percent H2O2, time 5 min) was 0.83 Log/mandrel. The “Microbial Load (CFU/mandrel)” value ([1]; 9.55 percent H2O2, time 10 min) was 5750 CFU/mandrel, the “Microbial Reduction (Log/mandrel)” value ([1]; 9.55 percent H2O2, time 10 min) was 1.92 Log/mandrel and the “Microbial Load (CFU/mandrel)” value ([1]; 9.55 percent H2O2, time 20 min) was 106 CFU/mandrel. For the same molecule, the “Microbial Reduction (Log/mandrel)” value ([1]; 9.55 percent H2O2, time 20 min) was 3.66 Log/mandrel, the “Microbial Load (CFU/mandrel)” value ([1]; 9.55 percent H2O2, time 30 min) was 8 CFU/mandrel and the “Microbial Reduction (Log/mandrel)” value ([1]; 9.55 percent H2O2, time 30 min) was 4.78 Log/mandrel. The “Microbial Load (CFU/mandrel)” value ([1]; 16.76 percent H2O2, time 0 min) was 1020667 CFU/mandrel, the “Microbial Reduction (Log/mandrel)” value ([1]; 16.76 percent H2O2, time 0 min) was 0.00 Log/mandrel and the “Microbial Load (CFU/mandrel)” value ([1]; 16.76 percent H2O2, time 5 min) was 52967 CFU/mandrel. The “Microbial Reduction (Log/mandrel)” value ([1]; 16.76 percent H2O2, time 5 min) was 1.22 Log/mandrel, the “Microbial Load (CFU/mandrel)” value [1, 3] was 1273 CFU/mandrel and the “Microbial Reduction (Log/mandrel)” value [1, 3] was 2.81 Log/mandrel. For the same molecule, the “Microbial Load (CFU/mandrel)” value [1, 4] was 30 CFU/mandrel, the “Microbial Reduction (Log/mandrel)” value [1, 4] was 4.53 Log/mandrel and the “Microbial Load (CFU/mandrel)” value [1, 5] was 8 CFU/mandrel. For the same molecule, the “Microbial Reduction (Log/mandrel)” value [1, 5] was 5.20 Log/mandrel, the “Microbial Load (CFU/mandrel)” value [1, 6] was 4 CFU/mandrel and the “Microbial Reduction (Log/mandrel)” value [1, 6] was 5.21 Log/mandrel. The “Microbial Load (CFU/mandrel)” value ([1]; 35 percent H2O2, time 0 min) was 799000 CFU/mandrel, the “Microbial Reduction (Log/mandrel)” value ([1]; 35 percent H2O2, time 0 min) was 0.00 Log/mandrel and the “Microbial Load (CFU/mandrel)” value ([1]; 35 percent H2O2, time 5 min) was 959 CFU/mandrel. The “Microbial Reduction (Log/mandrel)” value ([1]; 35 percent H2O2, time 5 min) was 2.92 Log/mandrel, the “Microbial Load (CFU/mandrel)” value ([1]; 35 percent H2O2, time 10 min) was 1 CFU/mandrel and the “Microbial Load (CFU/mandrel)” value ([1]; 35 percent H2O2, time 15 min) was 1 CFU/mandrel. For the same molecule, the “Microbial Reduction (Log/mandrel)” value ([1]; 35 percent H2O2, time 15 min) was 5.90 Log/mandrel, the “Microbial Load (CFU/mandrel)” value ([1]; 35 percent H2O2, time 20 min) was 1 CFU/mandrel and the “Microbial Reduction (Log/mandrel)” value ([1]; 35 percent H2O2, time 20 min) was 5.90 Log/mandrel. The “average count of colony forming units for the time period” value (shortened to “average count of colony forming units”) ([2]; time 0 min) was 3.51E+05 CFU/mandrel, the “log of average count for the time period” value ([2]; time 0 min) was 5.55 log and the “average count of colony forming units” value ([2]; time 15 min) was 2.90E+05 CFU/mandrel. For the same molecule, the “log of average count for the time period” value ([2]; time 15 min) was 5.46 log, the “Average CFU/mL” value ([2]; time 15 min) was 7.85E+04 CFU/mL and 6.65E+04 CFU/mL and the “Average CFU/mandrel” value ([2]; time 15 min) was 3.14E+05 CFU/mandrel and 2.66E+05 CFU/mandrel. The “Log (of Average CFU/mandrel)” value ([2]; time 15 min) was 5.50 Log and 5.42 Log, the “Result #1 CFU/mL” value ([2]; time 15 min) was 7.80E+04 CFU/mL and 4.70E+04 CFU/mL and the “Result #2 CFU/mL” value ([2]; time 15 min) was 7.90E+04 CFU/mL and 8.60E+04 CFU/mL. For the same molecule, the “Log Red. (Avg.)” value ([2]; time 15 min relative to time zero) was 0.08 Log, the “average count of colony forming units” value ([2]; time 30 min) was 2.72E+05 CFU/mandrel and the “log of average count for the time period” value ([2]; time 30 min) was 5.43 log. For the same molecule, the “Log (of Average CFU/mandrel)” value ([2]; time 30 min) was 5.47 Log and 5.28 Log and 5.49 Log, the “Result #1 CFU/mL” value ([2]; time 30 min) was 7.40E+04 CFU/mL and 4.30E+04 CFU/mL and 7.80E+04 CFU/mL and the “Log Red. (Avg.)” value ([2]; time 30 min relative to time zero) was 0.11 Log.
